Experimental data taken from publication PMC9841532, “Exploring the Effect of Halogenation in a Series of Potent and Selective A2B Adenosine Receptor Antagonists” (Journal of Medicinal Chemistry, 2022).
Where two headings read alike, the source gives them in different places.

What was measured:
A2BAR = target: T1, A2BAR (Homo sapiens, UniProt P29275); assay: cAMP accumulation assay in HEK-293 cells permanently expressing A2BAR-SNAP; type: cell-based; settings: read-out: KB (hA2B)
T1 construct: expressed in transfected cells; host or cells: HEK-293 T cells permanently expressing pRK5-A2BAR^SNAP
T1 sequence (P29275 1-332): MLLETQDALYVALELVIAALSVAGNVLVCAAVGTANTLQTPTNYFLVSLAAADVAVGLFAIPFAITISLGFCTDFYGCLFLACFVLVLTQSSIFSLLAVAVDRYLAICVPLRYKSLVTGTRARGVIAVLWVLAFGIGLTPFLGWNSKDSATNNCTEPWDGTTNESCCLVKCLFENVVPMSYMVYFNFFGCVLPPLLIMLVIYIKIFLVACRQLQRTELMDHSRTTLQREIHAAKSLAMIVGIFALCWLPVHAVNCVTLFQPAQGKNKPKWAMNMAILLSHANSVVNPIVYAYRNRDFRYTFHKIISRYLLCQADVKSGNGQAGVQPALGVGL
Description: To assess their ability to block A2BAR agonist intrinsic activity, the effect on A2BAR-mediated cAMP accumulation and cellular impedance was evaluated. To this end, we used HEK-293 cells permanently expressing the A2BAR^SNAP construct, which can be visualized upon staining the cells with a SNAP-fluorescent substrate.
Scale bar: […]. […] Data are expressed as mean ± SEM (n = 4).
cAMP accumulation was measured using the LANCE Ultra cAMP kit (PerkinElmer, Waltham, Massachusetts, USA) as previously described.[55] […] The 384-well plate was incubated 1 h at 22 °C in the dark and was then read on a CLARIOstar Microplate Reader (BMG Labtech, Durham, North Carolina, USA). […] Data were fitted by non-linear regression using GraphPad Prism 9 (San Diego, California, USA).

hA2BAR = target: T2, hA2BAR (Homo sapiens, UniProt P29275); assay: Radioligand binding competition, [3H]DPCPX, membranes from HEK-293-A2B cells; set-up: Exp. dG: unit not given here; settings: for Ki: read-out: Ki hA2B; for Exp. dG: experimental binding free energy, Supplementary Table S3, unit not given (errors in kcal/mol)
T2 construct: host or cells: HEK-293 (HEK-293-A2B) cell membranes
T2 sequence (P29275 1-332): T1 sequence (P29275 1-332)
In short: (§1)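 Racemates, plus selected enantiomers after chiral resolution, were tested at 25 °C, with a 60 min incubation for one subtype and 30 min for others. Non-specific binding was defined with 10 μM or 100 μM R-PIA. Bound radioactivity was counted after washing and filtration.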

hA3AR = target: T3, hA3AR (Homo sapiens, UniProt P0DMS8); assay: Radioligand binding competition, [3H]NECA, membranes from HeLa-A3 cells; settings: 1 μM, [3H]NECA, human HeLa cells, n = 2
T3 construct: expressed in transfected cells; host or cells: HeLa (HeLa-A3) cell membranes
T3 sequence (P0DMS8 1-318): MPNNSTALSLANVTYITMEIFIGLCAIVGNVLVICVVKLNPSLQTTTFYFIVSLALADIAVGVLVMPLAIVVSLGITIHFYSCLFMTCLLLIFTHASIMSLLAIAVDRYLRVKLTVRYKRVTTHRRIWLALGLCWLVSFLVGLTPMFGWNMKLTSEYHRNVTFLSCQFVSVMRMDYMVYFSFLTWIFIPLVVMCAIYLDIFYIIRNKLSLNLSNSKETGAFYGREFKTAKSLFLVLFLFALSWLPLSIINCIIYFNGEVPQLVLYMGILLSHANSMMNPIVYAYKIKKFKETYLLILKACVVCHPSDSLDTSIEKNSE
In short: as §1

CYP3A4 = target: T4, CYP3A4 (Homo sapiens, UniProt P08684); assay: CYP3A4 inhibition (fluorescence, substrates DBF or 7-BFC); type: biochemical; settings: for CYP3A4 % inh. at 10 μM, 7-BFC: substrate 7-benzyloxy-4-trifluoromethyl-coumarin; for IC50: IC50 obtained by extrapolation with analysis software, read-out: CYP3A4 IC50, DBF
T4 construct: host or cells: insect cell microsomes
Description: To identify potential metabolic liabilities within the series here documented, the selected A2BAR antagonists were tested in vitro for CYP3A4 inhibitory activity.
The inhibitory activity of selected compounds was evaluated by following a previously described method.[31] […] The plate was then pre-incubated at 37 °C for 5 min and the reaction initiated by the addition of a pre-warmed enzyme/substrate (E/S) mix. The E/S mix contained buffer (KH2PO4), c-DNA-expressed P450 in insect cell microsomes, substrate (DBF: dibenzylfluorescein or 7-BFC: 7-benzyloxy-4-trifluoromethyl-coumarin) and other components to give the final assay concentrations in a reaction volume of 200 μL. Reactions were terminated after various times (a specific time for each cytochrome) by addition of STOP solution (ACN/Tris–HCl 0.5 M 80:20, and NaOH 2 N for CYP3A4). Fluorescence per well was measured using a fluorescence plate reader (Tecan Infinite M1000 PRO), and percentage of inhibition was calculated. In silico predictions were performed using free web-based models (FAME 3, SmartCYP, and Xenosite).[62]−[64]

[1] = displacement of specific [3H]DPCPX binding in human HEK-293 cells, n = 3

T4 sequence (P08684 whole entry): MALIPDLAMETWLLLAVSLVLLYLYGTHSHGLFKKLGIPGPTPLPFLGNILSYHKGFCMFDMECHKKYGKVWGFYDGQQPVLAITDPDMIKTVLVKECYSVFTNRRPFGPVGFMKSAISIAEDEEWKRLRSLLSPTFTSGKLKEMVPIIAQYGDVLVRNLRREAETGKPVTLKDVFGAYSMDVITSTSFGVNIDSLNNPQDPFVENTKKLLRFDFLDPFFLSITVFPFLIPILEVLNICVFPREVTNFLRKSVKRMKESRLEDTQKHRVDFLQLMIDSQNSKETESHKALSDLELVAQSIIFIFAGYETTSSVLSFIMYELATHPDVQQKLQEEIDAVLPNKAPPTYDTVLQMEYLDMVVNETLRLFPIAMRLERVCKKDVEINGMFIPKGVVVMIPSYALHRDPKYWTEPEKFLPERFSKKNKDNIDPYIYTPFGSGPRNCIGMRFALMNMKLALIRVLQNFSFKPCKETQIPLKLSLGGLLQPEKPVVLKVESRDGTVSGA

SMILES | Kb (A2BAR) | Ki (hA2BAR; [1]) | Exp. dG (hA2BAR) | Ki (hA2BAR) | % at 1 μM hA3 (percentage displacement of specific binding) (hA3AR) | CYP3A4 % inh. at 10 μM, 7-BFC (CYP3A4; 10 μM) | CYP3A4 % inh. at 10 μM, DBF (CYP3A4; 10 μM, substrate dibenzylfluorescein) | IC50 (CYP3A4; substrate dibenzylfluorescein)
CC1=C(C(=O)OC(C)C)C(c2ccco2)n2c(nc3cc(F)ccc32)N1 (centres unmarked) [16b] | 0.8 ± 0.2 nM | 3.05 ± 0.7 nM | -11.61 | < 10 nM | 3% | 63% | 40% | 
CC1=C(C(=O)OC(C)C)C(c2ccco2)n2c(nc3cc(Cl)ccc32)N1 (centres unmarked) [16j] | 0.6 ± 0.2 nM | 5.03 ± 0.3 nM | -11.31 | < 10 nM | 2% | 54% |  | 3680 ± 470 nM
CC1=C(C(=O)OC(C)C)C(c2ccco2)n2c(nc3cc(Br)ccc32)N1 (centres unmarked) [16r] | 1.7 ± 0.6 nM | 5.23 ± 0.4 nM |  | < 10 nM | 10% | 52% |  | 2260 ± 300 nM
